How the values were obtained:
[1] = molecular target: T1, HPK1 (MAP4K1) (Homo sapiens, UniProt Q92918); test: In vitro kinase assay, myelin basic protein as substrate (ADP-Glo); format: biochemical; settings: recombinant kinase domain
T1 construct: Recombinant proteins of kinase domains of various MAP4Ks were used; purchased Promega
T1 sequence (Q92918 17-274 limits assumed): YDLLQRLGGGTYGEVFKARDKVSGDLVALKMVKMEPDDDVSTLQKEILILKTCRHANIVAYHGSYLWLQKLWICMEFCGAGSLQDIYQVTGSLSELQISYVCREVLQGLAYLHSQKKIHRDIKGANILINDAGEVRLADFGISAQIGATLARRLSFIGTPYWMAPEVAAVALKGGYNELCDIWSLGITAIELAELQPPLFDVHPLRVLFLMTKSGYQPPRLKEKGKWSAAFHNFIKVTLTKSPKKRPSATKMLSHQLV

[2] = molecular target: T2, GCK (MAP4K2) (Homo sapiens, UniProt Q12851); test: as above; format: biochemical; settings: recombinant kinase domain
T2 construct: Recombinant proteins of kinase domains of various MAP4Ks were used; purchased Promega
T2 sequence (Q12851 16-273 limits assumed): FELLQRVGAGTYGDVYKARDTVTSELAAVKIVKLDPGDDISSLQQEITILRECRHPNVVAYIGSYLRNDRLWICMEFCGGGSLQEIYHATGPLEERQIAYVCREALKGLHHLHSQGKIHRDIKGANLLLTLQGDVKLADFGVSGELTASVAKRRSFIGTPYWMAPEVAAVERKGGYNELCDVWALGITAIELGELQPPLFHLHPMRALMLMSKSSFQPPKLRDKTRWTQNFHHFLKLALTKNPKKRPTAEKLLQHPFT

[3] = molecular target: T3, HGK (MAP4K4) (Homo sapiens, UniProt O95819); test: as above; format: biochemical; settings: recombinant kinase domain
T3 construct: Recombinant proteins of kinase domains of various MAP4Ks were used; purchased Promega
T3 sequence (O95819 25-289 limits assumed): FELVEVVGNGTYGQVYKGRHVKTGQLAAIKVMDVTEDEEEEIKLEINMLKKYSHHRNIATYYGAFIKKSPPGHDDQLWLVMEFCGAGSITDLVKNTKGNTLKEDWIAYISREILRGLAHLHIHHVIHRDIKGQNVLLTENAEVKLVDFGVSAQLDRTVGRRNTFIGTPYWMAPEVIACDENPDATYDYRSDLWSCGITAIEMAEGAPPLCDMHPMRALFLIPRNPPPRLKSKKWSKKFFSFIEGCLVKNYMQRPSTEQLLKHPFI

[4] = tested on: GLK-induced NF-κB luciferase activity of CHO-GLK-Luc cells; test: Cell-based NF-κB luciferase reporter assay in GLK-transfected CHO-K1 cells; design: species or system Chinese hamster; settings: stable GLK-transfected CHO-K1 cells; Fig. 3A
Procedure: Cell-based high‐throughput screening was conducted against a representative library of 100,000 molecules at ∼10 μM. The Chinese hamster ovary CHO-K1 (ATCC, CCL-61) cells expressing GLK and NF-κB luciferase (Luc) reporter were used. The reaction volume was 5 μl (500 cells) per well in 1536‐well plates. There was no positive control. This high‐throughput screening campaign was successful, with a determined Z' factor of 0.57 ∼ 0.60. […] At the end, 1392 compounds were identified for high inhibition (>80%) of the GLK-induced NF-κB luciferase activity of CHO‐GLK‐Luc cells. These 1392 compounds were further screened for the inhibition of GLK kinase activity by in vitro kinase assays using the kinase-dead PKC-θ protein as the substrate. From the screening, 2 potential small-molecule GLK inhibitors [half maximal inhibitory concentration (IC50) < 10 μM] were identified.
Figure 3 Verteporfin (C1) blocks the AhR–ROR-γt complex in human autoimmune T cells. A) Luciferase activity of NF-κB–driven reporter assays in stable GLK-transfected CHO-K1 cells that were treated with or without C1 under the indicated concentration. The fold changes are presented relative to the value of vector control. […] D) Quantification of the PLA signals shown in panel C. *P < 0.05, ***P < 0.001 (2-tailed Student’s t test).

[5] = tested on: CIA mice; test: Collagen-induced arthritis (CIA) in wild-type C57BL/6J mice; format: in vivo
Procedure: At 12 wk of age (d 0), male C57BL/6J mice were intradermally injected in the superficial layer of tail dermis with a total of 100 μl of an emulsion containing the chicken type II chicken collagen or Freund’s complete adjuvant emulsification (MD Biosciences, Oakdale, MN, USA) ([23]). The same injection was repeated intraperitoneally on d 21. Then, clinical signs of disease were assigned using the following clinical scores: 1, swollen digits; 2, erythema; 3, swollen paw or ankle; 4, loss of function. Mice were treated with verteporfin at a concentration of 0.4 μg/g body weight (0.556 nmol/g) by intravenous injection every 3 d starting from d 21 up to d 36.
Figure 4 Verteporfin (C1) suppresses IL-17 production and autoimmune responses in mice. A–C) Effect of C1 administration (0.4 μg/g body weight every 3 d for a period of 30 d) on serum IL-17A and autoantibodies in 20-wk-old Lck-GLK Tg mice. B) ELISA of serum IL-17A, IL-6, TNF-α, IFN-γ, and IL-17F in Lck-GLK Tg mice treated with C1 or PBS for 16 d. C) ELISA of serum autoantibodies in Lck-GLK Tg mice treated with C1 or PBS for 30 d. Means ± SEM are shown; n = 4/group. D) EAE induction in wild-type C57BL/6J mice treated with PBS or C1 (0.4 μg/g body weight every 3 d). Clinical scores are presented on a scale of 1–5. PBS group, n = 10; C1 group, n = 7. E) ELISA of IL-17A in the sera from MOG-immunized mice at day 16. F) Induction of CIA in wild-type C57BL/6J mice treated with C1 (0.4 μg/g body weight every 3 d) or PBS. Clinical scores are presented on a scale of 1–16; n = 4/group. G) ELISA of serum IL-17A in collagen-immunized mice at d 28. Data shown are representatives of 3 independent experiments. α-dsDNA, anti-dsDNA antibody; ANA, anti-nuclear antibody; N.S., not significant; RF, rheumatoid factor. Means ± SEM are shown. *P < 0.05, **P < 0.01, ***P < 0.001 (2-tailed Student’s t test).

Substance: verteporfin
- IC50 [1]: 7.91 nM
- IC50 [2]: 10.3 nM
- IC50 [3]: 4.92 nM
- GLK signaling in cell lines (NF-κB-driven luciferase activity) [4]: efficiently inhibited
- serum levels of IL-6, TNF-α, IFN-γ, and IL-4, CIA ([5]; 0.4 μg/g body weight i.v. every 3 d): not significantly decreased
- serum IL-17A levels, CIA ([5]; 0.4 μg/g body weight i.v. every 3 d, d 28): significantly suppressed
- disease severity (clinical score), CIA ([5]; 0.4 μg/g body weight i.v. every 3 d from d 21): significantly suppressed

— publication PMC6766655, “AhR–ROR-γt complex is a therapeutic target for MAP4K3/GLK^highIL-17A^high subpopulation of systemic lupus erythematosus” (The FASEB Journal, 2019)
